Test results published in publication PMC5015098, “Purification, characterization, cytotoxicity and anticancer activities of L-asparaginase, anti-colon cancer protein, from the newly isolated alkaliphilic Streptomyces fradiae NEAE-82” (Scientific Reports, 2016).

Test system: T1, L-asparaginase
T1 construct: gene EC 3.5.1.1
Conditions: 0.05 M Tris-HCl pH 8.6, 37 °C, 30 min (standard assay)

NC(=O)C[C@H](N)C(=O)O [L-asparagine]
Km: 10.1 mM
